Measurements published in the supplement of paper PMC10307832.

Experiments:
Test in all cases: relative viability (nuclei count vs DMSO), 5 days (fraction); higher = more cells survive
[1] = compound: CC1=C(C(=NN1)C)CC2=C(C3=C(S2)N(C(=O)N(C3=O)C)CC(C)C)C(=O)N4C[C@@H](CO4)O
How it was run: (§1)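 A plate was accepted only when its control CV was below 25% and the cells had doubled at least once. Viability is defined from nuclear counts as treated wells divided by vehicle wells, with the median taken across plates. That median covers lung cancer cell lines grown in 1536-well plates, dosed by pinning at five √10-spaced library-drug concentrations, and counted in MetaXpress from 4× Hoechst images after 5 days.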

[2] = compound: Cc1ccccc1C(C(=O)NC1CCCCC1)N(C(=O)Cn1ccnc1C)c1cccc(F)c1 [IDH-C35]
How it was run: as §1

[3] = compound: Cc1ccccc1C(C(=O)NC1CCCCC1)N(C(=O)Cn1ccnc1C)c1cccc(F)c1 [IDH-C35] + CC1(C)CCC(c2ccc(Cl)cc2)=C(CN2CCN(c3ccc(C(=O)NS(=O)(=O)c4ccc(N[C@H](CCN5CCOCC5)CSc5ccccc5)c(S(=O)(=O)C(F)(F)F)c4)cc3)CC2)C1 [Navitoclax] (partner 0.5 µM)
How it was run: (§2)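 Relative viability equals treated-well nuclei counts divided by vehicle-well nuclei counts. Counts came from 4× images of lung cancer cell lines grown in 1536-well plates for 5 days after pin-tool dosing on the day after seeding. Dosing used one drug alone or a fixed anchor-drug dose plus five library-drug doses (not always all listed) in √10 steps, and values are medians of duplicate plates.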

[4] = compound: CC1=C(C(=NN1)C)CC2=C(C3=C(S2)N(C(=O)N(C3=O)C)CC(C)C)C(=O)N4C[C@@H](CO4)O + CC(=O)Nc1cccc(-n2c(=O)n(C3CC3)c(=O)c3c(Nc4ccc(I)cc4F)n(C)c(=O)c(C)c32)c1 [Trametinib] (partner 0.02 µM)
How it was run: as §2

Cell Line	relative viability ([1]; 0.0025 µM)	relative viability ([1]; 0.007906 µM)	relative viability ([1]; 0.025 µM)	relative viability ([1]; 0.07906 µM)	relative viability ([1]; 0.25 µM)	relative viability ([2]; 0.08 µM)	relative viability ([2]; 0.253 µM)	relative viability ([2]; 0.8 µM)	relative viability ([2]; 2.53 µM)	relative viability ([2]; 8 µM)	relative viability ([3]; first compound 0.08 µM)	relative viability ([3]; first compound 0.253 µM)	relative viability ([3]; first compound 0.8 µM)	relative viability ([3]; first compound 2.53 µM)	relative viability ([3]; first compound 8 µM)	relative viability ([4]; first compound 0.0025 µM)	relative viability ([4]; first compound 0.007906 µM)	relative viability ([4]; first compound 0.025 µM)	relative viability ([4]; first compound 0.07906 µM)	relative viability ([4]; first compound 0.25 µM)
PC-14	1.06	1.06	0.889	1.12	1.16	1.04	0.996	1	0.997	0.937	1.11	1.03	0.966	1.04	0.98	0.795	0.839	0.784	0.917	0.929
NCI-H1437	1.05	0.981	0.953	0.996	0.991	1.04	1.02	0.993	0.995	0.959	1.08	1.07	1.08	1.19	0.975	0.617	0.675	0.543	0.563	0.511
NCI-H460	1.02	1.08	0.955	0.968	1.06	1.01	0.99	1.01	0.957	0.94	1.26	1.19	1.06	1.07	1.21	0.158	0.149	0.186	0.136	0.206
NCI-H1666	1.09	0.97	1.01	0.983	1.02	1	0.956	0.965	1.06	1.04	1.03	0.977	0.961	1.07	0.881	0.876	0.824	0.885	0.786	0.891
NCI-H1651	0.962	1.08	0.986	0.963	0.993	0.939	0.947	0.921	1	0.959	1.03	1.01	0.972	1.03	1.01	0.865	0.861	0.849	0.798	0.819
NCI-H1755	1.03	1	1.03	0.989	1.03	1.05	0.961	0.968	1.03	1.01	0.981	1.01	0.973	0.976	0.96	0.829	0.818	0.745	0.73	0.761
HARA	1.03	1.05	1.01	1.02	1	1	0.949	0.915	1.03	0.931	1.08	1.14	1.14	1.12	1.14	1.14	0.991	0.759	0.662	0.782
NCI-H596	1.09	1.13	0.978	1.04	1.11	0.884	0.938	0.972	0.925	1.01	1.1	1	0.925	0.867	0.962	0.789	0.871	0.878	0.76	0.886
NCI-H23	1.01	1.05	0.867	0.975	1.09	1	1.04	0.95	0.806	0.859	0.792	0.828	0.883	0.992	0.807	0.42	0.526	0.421	0.359	0.397
